The mark [1] stands for this setting: compared with crystals of fluoxetine HCl.

SMILES strings stand for the structures. Read-outs that look alike come from different tables or passages of the source.

In the case of `CNCCC(Oc1ccc(C(F)(F)F)cc1)c1ccccc1.Cl.O=C(O)CCC(=O)O` (stereo not drawn) [fluoxetine HCl:succinic acid, fluoxetine HCl:succinic acid (2:1)], the dissolution rate result under setting [1] is recorded as “faster dissolution rate”. Turning to `CNCCC(Oc1ccc(C(F)(F)F)cc1)c1ccccc1.Cl.O=C(O)c1ccccc1` (stereo not drawn) [fluoxetine HCl:benzoic acid, fluoxetine HCl:benzoic acid (1:1)], the dissolution rate result reads like this: (Example 1 cocrystal) “relatively slow”; under setting [1], “lower dissolution rate”.

For the origin of these results see US8350085B2, “Cocrystallization” (New Form Pharmaceuticals Inc., priority 2003, dated 2013).
